Paper PMC8867174, “S-Nitrosation of Arabidopsis thaliana Protein Tyrosine Phosphatase 1 Prevents Its Irreversible Oxidation by Hydrogen Peroxide” (Frontiers in Plant Science, 2022)

Legend:
[1] = target: T1, His-AtPTP1 (Arabidopsis thaliana Protein Tyrosine Phosphatase 1) (Arabidopsis thaliana, UniProt O82656); experiment: pNPP hydrolysis after overnight pre-treatment, […] nm; assay type: biochemical; conditions: covalent (NO donor, S-nitrosation); 250 uM to 1 mM SNAP overnight 25 C, removed by gel filtration; assay 1 mM pNPP, pH 6.3, 25 C
T1 construct: gene PTP1
T1 sequence (O82656 1-340): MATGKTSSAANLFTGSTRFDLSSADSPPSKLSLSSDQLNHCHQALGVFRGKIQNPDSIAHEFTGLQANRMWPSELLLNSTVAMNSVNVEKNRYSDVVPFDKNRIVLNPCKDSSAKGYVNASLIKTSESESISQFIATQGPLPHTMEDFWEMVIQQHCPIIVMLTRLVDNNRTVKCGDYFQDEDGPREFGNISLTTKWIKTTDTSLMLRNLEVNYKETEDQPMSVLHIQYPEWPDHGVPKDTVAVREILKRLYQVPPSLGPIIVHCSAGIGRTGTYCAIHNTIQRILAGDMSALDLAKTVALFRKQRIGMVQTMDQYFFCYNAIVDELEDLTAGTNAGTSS

[2] = target: T1, His-AtPTP1 (Arabidopsis thaliana Protein Tyrosine Phosphatase 1); experiment: pNPP hydrolysis after overnight pre-treatment, […] nm; biotin switch LC-MS/MS; assay type: biochemical; conditions: covalent (S-nitrosation of catalytic C265, reversible by DTT); 100 or 500 uM GSNO overnight 25 C, removed by gel filtration; assay 1 mM pNPP, pH 6.3, 25 C, no DTT

Row | SMILES | relative activity [1] | relative activity [2]
1 | CC(=O)NC(C(=O)O)C(C)(C)SN=O (centres unmarked) [S-nitroso-N-acetylpenicillamine] | Treatment of His-AtPTP1 with SNAP also led to a significant decrease in its activity | –
2 | N[C@@H](CCC(=O)N[C@@H](CSN=O)C(=O)NCC(=O)O)C(=O)O [S-nitrosoglutathione] | – | GSNO inhibited the enzymatic activity of His-AtPTP1
